We go through eight compounds from PMC11110727, “Exploiting thiol-functionalized benzosiloxaboroles for achieving diverse substitution patterns – synthesis, characterization and biological evaluation of promising antibacterial agents” (RSC Medicinal Chemistry, 2024).

Molecules are shown by their SMILES. In brackets after ≈: the same amount, converted by molar mass. Where two headings read alike, the source gives them in different places.

One assay concerns S. cerevisiae ATCC 9763. As to the kind of experiment: Antifungal activity: MIC/MFC, disc-diffusion. It is filed as cell-based, Saccharomyces cerevisiae. Conditions: for diameter of inhibition zone / MFC: S. cerevisiae ATCC 9763; for diameter of inhibition zone: (-) = zone not observed, paper discs 9 mm; for MFC / MIC: Saccharomyces cerevisiae, ATCC9763. The essentials: (§1)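 Yeasts are grown twice on Sabouraud dextrose agar and bacteria twice on tryptic soy agar (30 °C, 24–48 h). MIC and disc-diffusion testing follow EUCAST/CLSI, and fungicidal or bactericidal activity follows CLSI. Compounds are dissolved in DMSO.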

The subject of a further assay is P. aeruginosa ATCC 27853. Description: Antibacterial activity: MIC/MBC, MIC with PAβN, disc-diffusion. The assay is classed as cell-based. Particulars: Pseudomonas aeruginosa, ATCC27853. The essentials:
(§2)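 MICs were measured by CLSI broth microdilution in Mueller–Hinton II broth, with or without the efflux-pump inhibitor PAβN (20 μg mL^−1) and with 1 mM MgSO4 present. A reduction of at least 4-fold with PAβN was counted as significant. Disc diffusion followed EUCAST/CLSI, MBC followed CLSI, and compounds were dissolved in DMSO.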
In general terms: Agar diffusion results depend on both activity and mobility in agar.

The next assay concerns C. albicans ATCC 90028. Description: Antifungal activity: MIC/MFC, disc-diffusion. The assay is classed as cell-based, Candida albicans. Particulars: Candida albicans, ATCC90028. The essentials: as §1
A further assay has as its system B. cepacia ATCC 25416. As to the kind of experiment: Antibacterial activity: MIC/MBC, disc-diffusion. Conditions: Burkholderia cepacia, ATCC25416. It is filed as cell-based, Burkholderia cepacia. In outline:
as §2

The subject of the next assay is E. cloacae DSM 6234. As to the kind of experiment: Antibacterial activity: MIC/MBC, MIC with PAβN, disc-diffusion. It is filed as cell-based, Enterobacter cloacae. Particulars: Enterobacter cloacae, DSM6234. The essentials:
as §2

Assay [1] has as its system S. maltophilia ATCC 13637. Described as above. The assay is classed as cell-based, Stenotrophomonas maltophilia. Particulars: Stenotrophomonas maltophilia, ATCC13637. In outline:
as §2

Assay [2] has as its system S. maltophilia ATCC 12714. Described as above. The assay is classed as cell-based, Stenotrophomonas maltophilia. Conditions: Stenotrophomonas maltophilia, ATCC12714. The essentials:
as §2

The test system of a further assay is C. tropicalis IBA 171. As to the kind of experiment: Antifungal activity: MIC/MFC, disc-diffusion. Conditions: Candida tropicalis, IBA171. The assay is classed as cell-based. In outline:
as §1

Assay [3] concerns C. guilliermondii IBA 155. Description: Antifungal activity: MIC/MFC, disc-diffusion. The assay is classed as cell-based. Particulars: Meyerozyma guilliermondii, IBA155. In outline: as §1
For another assay, the system named is C. tropicalis ATCC 750. Description: Antifungal activity: MIC/MFC, disc-diffusion. It is filed as cell-based. Particulars: Candida tropicalis, ATCC750. The essentials:
as §1

For assay [4], the system named is C. parapsilosis ATCC 22019. Description: Antifungal activity: MIC/MFC, disc-diffusion. It is filed as cell-based. Particulars: Lodderomyces parapsilosis, ATCC22019. In outline:
as §1

[5] abbreviates: P. aeruginosa ATCC 27853, read-out: MIC.
Setting [6] is: B. cepacia ATCC 25416, read-out: MIC.
Setting [7] is: E. cloacae DSM 6234, read-out: MIC.
Setting [8] is: S. maltophilia ATCC 13637, read-out: MIC.
Setting [9] is: S. maltophilia ATCC 12714, read-out: MIC.

As for `C[Si]1(C)OB(O)c2ccc(SCCS(=O)(=O)c3ccccc3)c(F)c21` [Compound 21, 7-Fluoro-1,1-dimethyl-6-((2-(phenylsulfonyl)ethyl)thio)benzo[c][1,2,5]oxasilaborol-3(1H)-ol], the “diameter of inhibition zone” value in the assay with S. cerevisiae ATCC 9763 was determined as 30 mm. In addition, the MFC – broadly, the lowest tested concentration that kills the fungus rather than only halting it – against S. cerevisiae ATCC 9763 amounted to 100 µg/mL (≈ 252 µM). In addition, the MIC (commonly the lowest concentration found to suppress growth) in the assay on S. cerevisiae ATCC 9763 (read-out: MIC) is 6.25 µg/mL (≈ 15.8 µM); in the assay with P. aeruginosa ATCC 27853 (setting [5]), more than 400 µg/mL; in the assay with C. albicans ATCC 90028 (read-out: MIC), 400 µg/mL (≈ 1010 µM); with B. cepacia ATCC 25416 (setting [6]) it was more than 400 µg/mL; in the assay on E. cloacae DSM 6234 (setting [7]), more than 400 µg/mL; in assay [1] (setting [8]) it was more than 400 µg/mL. Moreover, the MIC in [2] (setting [9]) is more than 400 µg/mL; in the assay with C. tropicalis IBA 171 (read-out: MIC), 400 µg/mL (≈ 1010 µM); in assay [3] (read-out: MIC), more than 400 µg/mL; in the assay with C. tropicalis ATCC 750 (read-out: MIC), more than 400 µg/mL; in assay [4] (read-out: MIC), 400 µg/mL (≈ 1010 µM).

Turning to `CC(=O)CSc1ccc2c(c1F)[Si](C)(C)OB2O` [Compound 22, 1-((7-Fluoro-3-hydroxy-1,1-dimethyl-1,3-dihydrobenzo[c][1,2,5]oxasilaborol-6-yl)thio)propan-2-one], the “diameter of inhibition zone” value in the assay with S. cerevisiae ATCC 9763 was 17 mm. In addition, the MIC with S. cerevisiae ATCC 9763 (read-out: MIC) is 400 µg/mL (≈ 1410 µM); in the assay with P. aeruginosa ATCC 27853 (setting [5]) it was more than 400 µg/mL; in the assay on C. albicans ATCC 90028 (read-out: MIC) it was more than 400 µg/mL; in the assay on B. cepacia ATCC 25416 (setting [6]), more than 400 µg/mL; in the assay on E. cloacae DSM 6234 (setting [7]), more than 400 µg/mL; in [1] (setting [8]), more than 400 µg/mL. The MIC (in [2] (setting [9]); with C. tropicalis IBA 171 (read-out: MIC); in assay [3] (read-out: MIC); in the assay on C. tropicalis ATCC 750 (read-out: MIC); in assay [4] (read-out: MIC)) was more than 400 µg/mL in each case.

Regarding `C[Si]1(C)OB(O)c2ccc(SCC(=O)c3ccccc3)c(F)c21` [Compound 23, 2-((7-Fluoro-3-hydroxy-1,1-dimethyl-1,3-dihydrobenzo[c][1,2,5]oxasilaborol-6-yl)thio)-1-phenylethan-1-one], the “diameter of inhibition zone” value in the assay with S. cerevisiae ATCC 9763 stood at 24 mm. In the assay on S. cerevisiae ATCC 9763, this compound returned an MFC of 200 µg/mL (≈ 578 µM). Moreover, the MIC is 25 µg/mL (≈ 72.2 µM) with S. cerevisiae ATCC 9763 (read-out: MIC); more than 400 µg/mL with P. aeruginosa ATCC 27853 (setting [5]); more than 400 µg/mL in the assay with C. albicans ATCC 90028 (read-out: MIC); more than 400 µg/mL in the assay with B. cepacia ATCC 25416 (setting [6]); more than 400 µg/mL in the assay with E. cloacae DSM 6234 (setting [7]); more than 400 µg/mL in [1] (setting [8]). For the same compound, the MIC in [2] (setting [9]) is more than 400 µg/mL; in the assay on C. tropicalis IBA 171 (read-out: MIC), 400 µg/mL (≈ 1160 µM); in assay [3] (read-out: MIC), more than 400 µg/mL; with C. tropicalis ATCC 750 (read-out: MIC), 400 µg/mL (≈ 1160 µM); in assay [4] (read-out: MIC), 400 µg/mL (≈ 1160 µM).

Consider `CCOP(=O)(OCC)Sc1c(F)cc2c(c1F)[Si](C)(C)OB2O` [Compound 24, S-(5,7-Difluoro-3-hydroxy-1,1-dimethyl-1,3-dihydrobenzo[c][1,2,5]oxasilaborol-6-yl) O,O-diethyl phosphorothioate], for which the MIC (against S. cerevisiae ATCC 9763; in the assay on P. aeruginosa ATCC 27853; in the assay with C. albicans ATCC 90028; against B. cepacia ATCC 25416; against E. cloacae DSM 6234; in assay [1]) was more than 400 µg/mL throughout. Moreover, the minimum inhibitory concentration (MIC) (in assay [2]; against C. tropicalis IBA 171; in assay [3]; in the assay with C. tropicalis ATCC 750; in [4]) was more than 400 µg/mL throughout.

Take `C[Si]1(C)OB(O)c2ccc(SC(=O)c3ccc(C(F)(F)F)cc3)c(F)c21` [Compound 25, S-(7-Fluoro-3-hydroxy-1,1-dimethyl-1,3-dihydrobenzo[c][1,2,5]oxasilaborol-6-yl) 4-(trifluoromethyl)benzothioate]: the MIC with S. cerevisiae ATCC 9763 (read-out: MIC) is 25 µg/mL (≈ 62.5 µM); with P. aeruginosa ATCC 27853 (setting [5]), more than 50 µg/mL; in the assay with C. albicans ATCC 90028 (read-out: MIC), 50 µg/mL (≈ 125 µM); in the assay on B. cepacia ATCC 25416 (setting [6]), more than 50 µg/mL; in the assay with E. cloacae DSM 6234 (setting [7]) it was more than 50 µg/mL; in [1] (setting [8]) it was more than 50 µg/mL. Also, the MIC in assay [2] (setting [9]) is more than 50 µg/mL; in the assay on C. tropicalis IBA 171 (read-out: MIC), 50 µg/mL (≈ 125 µM); in assay [3] (read-out: MIC), 50 µg/mL (≈ 125 µM); in the assay on C. tropicalis ATCC 750 (read-out: MIC), more than 50 µg/mL; in [4] (read-out: MIC), more than 50 µg/mL.

As to `C[Si]1(C)OB(O)c2cc(F)c(S(=O)(=O)Cl)c(F)c21` [Compound 26, 5,7-Difluoro-3-hydroxy-1,1-dimethyl-1,3-dihydrobenzo[c][1,2,5]oxasilaborole-6-sulfonyl chloride], the MIC (in the assay with S. cerevisiae ATCC 9763 (read-out: MIC); with P. aeruginosa ATCC 27853 (setting [5]); in the assay with C. albicans ATCC 90028 (read-out: MIC); in the assay with B. cepacia ATCC 25416 (setting [6]); in the assay with E. cloacae DSM 6234 (setting [7]); in assay [1] (setting [8])) was more than 400 µg/mL each time. Further, the MIC (in [2] (setting [9]); with C. tropicalis IBA 171 (read-out: MIC); in [3] (read-out: MIC); in the assay with C. tropicalis ATCC 750 (read-out: MIC); in assay [4] (read-out: MIC)) was more than 400 µg/mL in each case.

Regarding `C[Si]1(C)OB(O)c2cc(F)c(S(N)(=O)=O)c(F)c21` [Compound 27, 5,7-Difluoro-3-hydroxy-1,1-dimethyl-1,3-dihydrobenzo[c][1,2,5]oxasilaborole-6-sulfonamide], the MIC (with S. cerevisiae ATCC 9763 (read-out: MIC); in the assay on P. aeruginosa ATCC 27853 (setting [5]); in the assay with C. albicans ATCC 90028 (read-out: MIC); in the assay with B. cepacia ATCC 25416 (setting [6]); with E. cloacae DSM 6234 (setting [7]); in assay [1] (setting [8])) was more than 400 µg/mL each time. Further, the minimal inhibitory concentration (MIC) (in [2] (setting [9]); in the assay with C. tropicalis IBA 171 (read-out: MIC); in assay [3] (read-out: MIC); in the assay on C. tropicalis ATCC 750 (read-out: MIC); in [4] (read-out: MIC)) was more than 400 µg/mL in each case.

Consider `C[Si]1(C)OB(O)c2cc(F)c(S(=O)(=O)Nc3ccc(F)cc3)c(F)c21` [Compound 28, 5,7-Difluoro-N-(4-fluorophenyl)-3-hydroxy-1,1-dimethyl-1,3-dihydrobenzo[c][1,2,5]oxasilaborole-6-sulfonamide], for which the minimum inhibitory concentration (MIC) (with S. cerevisiae ATCC 9763 (read-out: MIC); in the assay on P. aeruginosa ATCC 27853 (setting [5]); with C. albicans ATCC 90028 (read-out: MIC); with B. cepacia ATCC 25416 (setting [6]); in the assay on E. cloacae DSM 6234 (setting [7]); in [1] (setting [8])) was more than 400 µg/mL each time. The MIC (in [2] (setting [9]); in the assay with C. tropicalis IBA 171 (read-out: MIC); in [3] (read-out: MIC); in the assay on C. tropicalis ATCC 750 (read-out: MIC); in assay [4] (read-out: MIC)) was more than 400 µg/mL throughout.
